# Experimental data reported in patent US11925611B2, “Use of ZT-1A and analogs thereof to prevent and/or treat neurodegenerative and neurocognitive disorders” (United States Government as Represented by the Department …, priority 2021, dated 2024).
# Assays:
# BCAS mice = test: Immunostaining of brains of BCAS mice (MBP, APC, NG2, caspase 3/Olig2, GFAP, tNKCC1); assay type: in vivo, C57BL/6J mice
# From the text: Clinically, most patients with intracranial atherosclerotic stenosis suffer from permanent stenosis without occlusion. Therefore, to mimic clinical atherosclerotic stenosis with permanent carotid artery (CCA) hypoperfusion, a modified BCAS model was adapted by ligating the CCA guided with a 30 gauge needle (0.31 mm diameter) in the right CCA and a 33 gauge needle (0.21 mm diameter) in the left CCA with a 4-0 silk suture. […] Next, changes of total NKCC1 (tNKCC1) protein expression were surveyed in different brain regions at 2 and 4 wks post-surgery by immunofluorescence staining (IF). […] Therefore, in the rest of the study, the investigation was focused on its association to white matter GFAP^+ astrogliosis and lesion of CC and external capsul (EC) tracks. […] However, by 2 wks post-BCAS surgery, tNKCC1 immunofluorescence intensity in the CC tracks was increased by ˜3 folds (p<0.05), and further elevated to ˜6 folds by 4 wks (p<0.05, arrowhead). Data are mean±SEM, n=4, *p<0.05, **p<0.01. […] The upregulation of tNKCC1 and GFAP protein expression in the CC is correlated, with a Pearson's correlation coefficient of r=0.9 (p<0.001). […] In contrast, no elevated tNKCC1 protein was detected either in Iba1^+ microglia/macrophages or in Olig2+ oligodendrocytes (OL) at 4 wks post-BCAS surgery (FIG. 1D). Without wishing to be bound by theory, these findings indicate that upregulation of NKCC1 expression and activity in reactive astrocytes may play a critical role in white matter inflammation, OL death, and demyelination after BCAS. Next, whether administration of SPAK inhibitor ZT-1a reduces WML and improves cognitive functions was examined. Starting at 14 days after BCAS surgery in mice (male), either vehicle DMSO (Veh, 2 ml/kg) or ZT-1a (5 mg/kg, every 72 h, i.p) was administered every 3 days, until they were sacrificed at day 35 post-BCAS (FIG. 3A). […] Motor functions are similar in all groups and average swimming speeds were not different in the Sham-, Veh- and ZT-1a-treated mice. Data are mean±SEM, n=6 (Sham and ZT-1a) or 5 (Veh), *p<0.01 vs. sham, *p<0.05 vs. Veh. After completion of the neurological function tests in the Veh-control and ZT-1a-treated BCAS cohort mice (as shown in FIG. 3A and FIG. 3B), ex-vivo brains were harvested for MRI DTI (diffusion tensor imaging) analysis of WML at 4 wks post-BCAS detected by DTI. The fractional anisotropy (FA), radial diffusivity (RD), and mean diffusivity (MD) of the CC and EC tracks were analyzed. Representative images of the DEC maps in FIG. 4A show severe loss of axonal fibers (arrowheads) in the CC and left EC of the Veh-control brains. […] These observations are consistent with changes of FA, RD, and MD values (FIG. 4B). […] Then MBP expression levels were measured in these brains by immunostaining. […] Taken together, these findings illustrated that post-BCAS administration of SPAK inhibitor ZT-1a reduces BCAS-induced white matter demyelination. […] To test this, immunostaining of the same cohort of brains (of FIG. 4A-D) was conducted to analyze oligodendrocyte precursor cell (OPC) counts (NG2^+), differentiated mature OLs (APC^+), and apoptotic OLs (caspase 3^+Olig2^+) in the Sham, Veh-, and ZT-1a-treated BCAS mice. […] Referring to FIG. 5A and FIG. 5B, representative double immunofluorescence images of APC (mature oligodendrocyte marker)/NG2 (oligodendrocyte precursor cell marker) in CC (FIG. 5A) and EC (FIG. 5B) of Sham, Veh-, and ZT-1a-treated brains at 4-wk after BCAS surgery. Nuclei were counterstained with DAPI. Quantitative analyses of APC^+/DAPI^+ cells and NG2^+/DAPI^+ cells is shown. Data are mean±SEM, n=4, *p<0.05, […]. Referring to FIG. 5C, representative double immunofluorescence images of Caspase 3^+/Olig2^+ cells in CC of Sham, Veh-, and ZT-1a-treated brains. Data are mean±SEM, n=4, *p<0.05. Without wishing to be bound by theory, it is speculated that ZT-1a treatment preserves white matter integrity via reducing reactive astrocyte-mediated inflammation in white matter tracks. […]
# NKCC1 = test: Cellular inhibition of NKCC1 phosphorylation (pThr203); assay type: cell-based; conditions: Isotonic conditions; n = 3; — = no inhibition; read-out: NKCC1 pThr203 (μM) Iso
# From the text: 8. Cellular Activity Profile of Inhibitors with the Salicyclic Amide
# A list of the compounds evaluated for their ability to inhibit phosphorylation of SPAK/NKCC1/KCC3 activity is illustrated in Table 1 below.
# [1] = 4 wks post-BCAS, vs Veh-controls
compound,measurement,setting,value
Cc1cc(C(C#N)c2ccc(Cl)cc2)c(Cl)cc1NC(=O)c1cc(Cl)ccc1O (stereo not shown) [1a (ZT-1a)],decrease in GFAP expression in CC,"BCAS mice; 4 weeks after BCAS, n=4",~50%
same,decrease in tNKCC1 expression in CC,"BCAS mice; 4 weeks after BCAS, n=4",~60%
same,APC+ cell counts (mature OLs) in the CC and EC tracts,BCAS mice; [1],significantly higher
same,NG2+ cell counts (OPC) in the CC and EC tracts,BCAS mice; [1],significantly higher
same,caspase 3+ OLs cell counts in CC,BCAS mice; [1],less
same,MBP protein expression in the CC and EC tracks,"BCAS mice; 4 wks post-BCAS, vs Veh-treated BCAS brains, p<0.05",less MBP loss
same,IC50,NKCC1,1 µM
